Results from paper PMC11678777, “Haloperidol-Induced Catalepsy and Its Correlations with Acetylcholinesterase Activity in Different Brain Structures of Mice” (Neurology International, 2024).

Target: T1, commercial enzyme AChE from Electrophorus electricus (Electrophorus electricus, UniProt O42275)
T1 construct: commercial enzyme (Sigma), native
Assay: Ellman assay, […] nm, 96-well plate
Format: biochemical
Conditions: AChE 1 U/mL; phosphate buffer 0.1 mol/L pH 8.0; 10 µL of 20 mmol/L acetylthiocholine iodide in 200 µL; 10 min preincubation, room temperature; Haldol formulation

T1 sequence (O42275 24-633): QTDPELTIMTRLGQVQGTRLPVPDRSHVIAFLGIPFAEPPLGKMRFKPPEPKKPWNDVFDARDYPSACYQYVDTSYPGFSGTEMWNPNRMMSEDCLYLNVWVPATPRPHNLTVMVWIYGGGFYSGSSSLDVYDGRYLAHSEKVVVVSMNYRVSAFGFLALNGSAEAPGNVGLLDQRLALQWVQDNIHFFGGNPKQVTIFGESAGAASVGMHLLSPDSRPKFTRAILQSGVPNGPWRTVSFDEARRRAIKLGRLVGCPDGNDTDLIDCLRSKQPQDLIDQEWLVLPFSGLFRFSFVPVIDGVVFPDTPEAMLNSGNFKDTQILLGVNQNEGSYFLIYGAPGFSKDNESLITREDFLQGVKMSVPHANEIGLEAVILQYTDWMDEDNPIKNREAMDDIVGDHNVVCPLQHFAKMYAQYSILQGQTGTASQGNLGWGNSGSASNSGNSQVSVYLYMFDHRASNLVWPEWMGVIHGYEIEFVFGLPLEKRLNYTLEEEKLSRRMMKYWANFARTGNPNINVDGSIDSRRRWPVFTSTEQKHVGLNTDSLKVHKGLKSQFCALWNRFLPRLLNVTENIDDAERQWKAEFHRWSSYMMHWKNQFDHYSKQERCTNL

Q: With `O=C(CCCN1CCC(O)(c2ccc(Cl)cc2)CC1)c1ccc(F)cc1` [Haloperidol] as the molecule, how does the dose-dependent inhibition read?
A: Hal inhibited commercial AChE activity in a dose-dependent manner
